According to patent US20210283163A1, “COMPOSITIONS AND METHODS FOR THE TREATMENT OF ACUTE AND CHRONIC PRURITIS” (Duke University, priority 2018, published 2021):
Each block holds one molecule with its values, some of them ahead of it.

Key:
[1] = test system: TG neurons; assay: Calcium imaging in TG neurons of Pirt-GCaMP3 mice; assay type: cell-based, mouse; details: histamine 500 μM, CQ 1000 μM, AITC 200 μM; for TG neurons responding (calcium): miR-711 50 μM, 204 neurons
Procedure: Primary Cultures of Mouse and Human Sensory Neurons. […] Cells were mechanically dissociated with a flame polished Pasteur pipette in the presence of 0.05% DNase I (Sigma).
Ca^2+ Imaging. […] The imaging buffer includes 140 mM NaCl, 10 mM D-(+)-Glucose, 1 mM MgCl2, 2 mM CaCl2, 5 mM KCl, 10 mM HEPES, pH=7.4, osmolarity=320 mOsm/L. Calcium signals were measured using green emitted light in a 3 s interval. Ca ^2+ signal amplitudes were presented as ΔF/F0=(Ft−F0)/F0 as ratio of fluorescence difference (Ft−F0) to basal value (F0). The average fluorescence intensity in the baseline period was taken as F0. Ca ^2+ imaging was also analyzed in HEK293-TRPA1 cell line after loading cells with […] fura2-AM (Invitrogen) for 40 min in the Ca^2+ imaging buffer. Ca^2+ imaging protocol was a ratio metric method with 340/380-nm wavelength light for dual excitation. Data were presented as ΔR/R0, determined as the fraction ΔR (Rt−R0) of the increase of a given ratio over baseline ratio (R0).

[2] = biological target: T1, mmu-TRPA1 (Mus musculus, UniProt Q8BLA8); assay: Whole-cell patch clamp in CHO cells transfected with wild-type mmu-Trpa1 cDNA; assay type: cell-based; details: miR-711 10 μM, AITC 50 μM
T1 construct: HA; expressed in transfected cells; host or cells: CHO cells (ATCC CRL-9096), transient transfection with Lipofectamine 2000
Procedure: Constructs. The cDNAs of mouse pcDNA3.1-Trpa1, pcDNA3.1-Trpv1, pcDNA3.1-Trpv2, pcDNA3.1-Trpv3, and pcDNA3.1-Trpv4 were kindly provided Dr. Sun Work Hwang from Korea University. Mouse Trpa1 cDNA was subcloned into pCGN-HA backbone (Addgene) using In-Fusion HD Cloning Kit (Clontech Laboratories, CA). Q5 Site-Directed Mutagenesis Kit was used to generate mTrpa1 mutant (M1-M13) based on pCGN-mTrpa1.
Cell Culture and Transfection. CD4^+ Myla cell line was cultured in RPMI 1640 media (GIBCO), supplemented with 2 mM Glutamine (GIBCO), 100 U/mL IL-2 (Sigma), 100 U/mL IL-4 (Sigma), and 10% human AB serum (Sigma). HuT 102 cell line was cultured in RPMI 1640 supplemented with pyruvate, HEPES, and 10% (v/v) fetal bovine serum (HyClone). HEK293-hTRPA1 stable cell line was cultured in MEM (GIBCO) containing 2 mM Glutamine, 4 μg/mL Blasticidin, 10% FBS (v/v). B16 and CHO cells were cultured in high glucose (4.5 g/L) Dulbecco's Modified Eagle's Medium (GIBCO) containing 10% (v/v) fetal bovine serum (GIBCO). Culture media were supplemented with 50 units/mL of penicillin and 50 μg/mL streptomycin, and cultures were maintained with 5% CO2 in 37° C. incubator. Transfection (2 μg cDNA) was performed with Lipofectamine™ 2000 Reagent (Invitrogen) at 80% confluency and the transfected cells were cultured in the same media for 48 hr before electrophysiological and biochemical studies. […]

[3] = biological target: hTRPA1 (Homo sapiens, UniProt O75762); assay: Outside-out patch recordings, single channel activity, hTRPA1-expressing HEK293 cells; assay type: cell-based
Procedure: Inside-Out and Outside-Out Patch Clamp Recordings on HEK293 Cells. For inside-out recordings in TRPA1-expressing HEK293 cells, pipette resistance was 8-10 MΩ and, the internal solution contains: 126 mM K-gluconate, 10 mM NaCl, 1 mM MgCl2, 10 mM EGTA, 10 mM HEPES, and 2 Na-ATP (adjusted to pH 7.3 with KOH, osmolarity to 295-300 mOsm). The recordings were performed at room temperature in a bath solution (intracellular side) of 140 mM NaCl, 10 mM EGTA, 5 mM KCl, 2 mM CaCl2, 1 mM MgCl2, 10 mM HEPES, 10 mM glucose, adjusted to pH 7.4 with NaOH and osmolarity to 300-310 mOsm (Park et al., Neuron 2014, 82, 47-54). For comparison, outside-out recordings were also performed in TRPA1-expressing HEK293 cells in an extracellular solution of 140 mM NaCl, 5 mM KCl, 2 mM MgCl2, 10 mM HEPES, and 10 mM glucose (adjusted to pH 7.4 with NaOH and osmolarity to 300-310 mOsm). The internal solution contains 140 mM CsCl, 10 mM EGTA, 10 mM HEPES, and mM 2 Mg-ATP, adjusted to pH 7.3 with CsOH. Currents were low-pass filtered at 2 kHz and digitized at a sampling rate of 10 kHz with Digidata-1440A (Axon Instruments). The pClamp10 (Axon Instruments) software was used during experiments and data analysis. Opening and closing transitions of single channels were detected by using 50% of the threshold criterion. All events were carefully checked before the analysis. When superimposed openings were observed, the number of channels in the patch was estimated from the maximal number of superimposed openings. The single-channel open probability (Po) was determined using the following equation: Po=T′/T, where T′ is the total open time for a patch over time T.

Chain of hTRPA1 (O75762 whole entry): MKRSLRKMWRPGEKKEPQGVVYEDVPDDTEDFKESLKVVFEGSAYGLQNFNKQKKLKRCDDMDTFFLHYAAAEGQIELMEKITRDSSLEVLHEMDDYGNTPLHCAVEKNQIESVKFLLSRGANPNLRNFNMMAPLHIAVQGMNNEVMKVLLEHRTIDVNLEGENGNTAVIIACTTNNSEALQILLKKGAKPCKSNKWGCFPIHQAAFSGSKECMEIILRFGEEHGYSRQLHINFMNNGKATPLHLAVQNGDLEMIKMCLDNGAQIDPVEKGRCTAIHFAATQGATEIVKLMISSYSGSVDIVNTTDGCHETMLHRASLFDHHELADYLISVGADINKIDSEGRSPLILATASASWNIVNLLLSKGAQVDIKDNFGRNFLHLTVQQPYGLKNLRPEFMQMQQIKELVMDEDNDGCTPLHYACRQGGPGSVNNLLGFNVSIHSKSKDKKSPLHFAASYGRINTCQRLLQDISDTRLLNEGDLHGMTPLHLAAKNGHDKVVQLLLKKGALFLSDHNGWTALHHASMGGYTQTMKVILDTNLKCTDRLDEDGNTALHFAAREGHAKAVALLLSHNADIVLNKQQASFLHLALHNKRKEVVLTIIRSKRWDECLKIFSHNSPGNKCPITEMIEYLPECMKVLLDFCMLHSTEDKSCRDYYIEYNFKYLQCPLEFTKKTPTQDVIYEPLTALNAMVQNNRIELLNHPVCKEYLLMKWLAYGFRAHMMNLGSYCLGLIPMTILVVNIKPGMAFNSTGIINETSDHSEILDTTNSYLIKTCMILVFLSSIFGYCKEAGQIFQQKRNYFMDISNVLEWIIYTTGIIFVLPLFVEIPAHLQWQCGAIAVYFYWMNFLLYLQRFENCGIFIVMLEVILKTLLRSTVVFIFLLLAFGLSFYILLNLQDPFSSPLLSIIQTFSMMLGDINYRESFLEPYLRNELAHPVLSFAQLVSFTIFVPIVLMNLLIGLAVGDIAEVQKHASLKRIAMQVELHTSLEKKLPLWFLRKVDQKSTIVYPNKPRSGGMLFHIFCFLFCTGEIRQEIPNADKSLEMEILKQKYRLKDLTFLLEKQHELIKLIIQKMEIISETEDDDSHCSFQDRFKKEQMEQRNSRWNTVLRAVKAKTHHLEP
T1 sequence (Q8BLA8 whole entry): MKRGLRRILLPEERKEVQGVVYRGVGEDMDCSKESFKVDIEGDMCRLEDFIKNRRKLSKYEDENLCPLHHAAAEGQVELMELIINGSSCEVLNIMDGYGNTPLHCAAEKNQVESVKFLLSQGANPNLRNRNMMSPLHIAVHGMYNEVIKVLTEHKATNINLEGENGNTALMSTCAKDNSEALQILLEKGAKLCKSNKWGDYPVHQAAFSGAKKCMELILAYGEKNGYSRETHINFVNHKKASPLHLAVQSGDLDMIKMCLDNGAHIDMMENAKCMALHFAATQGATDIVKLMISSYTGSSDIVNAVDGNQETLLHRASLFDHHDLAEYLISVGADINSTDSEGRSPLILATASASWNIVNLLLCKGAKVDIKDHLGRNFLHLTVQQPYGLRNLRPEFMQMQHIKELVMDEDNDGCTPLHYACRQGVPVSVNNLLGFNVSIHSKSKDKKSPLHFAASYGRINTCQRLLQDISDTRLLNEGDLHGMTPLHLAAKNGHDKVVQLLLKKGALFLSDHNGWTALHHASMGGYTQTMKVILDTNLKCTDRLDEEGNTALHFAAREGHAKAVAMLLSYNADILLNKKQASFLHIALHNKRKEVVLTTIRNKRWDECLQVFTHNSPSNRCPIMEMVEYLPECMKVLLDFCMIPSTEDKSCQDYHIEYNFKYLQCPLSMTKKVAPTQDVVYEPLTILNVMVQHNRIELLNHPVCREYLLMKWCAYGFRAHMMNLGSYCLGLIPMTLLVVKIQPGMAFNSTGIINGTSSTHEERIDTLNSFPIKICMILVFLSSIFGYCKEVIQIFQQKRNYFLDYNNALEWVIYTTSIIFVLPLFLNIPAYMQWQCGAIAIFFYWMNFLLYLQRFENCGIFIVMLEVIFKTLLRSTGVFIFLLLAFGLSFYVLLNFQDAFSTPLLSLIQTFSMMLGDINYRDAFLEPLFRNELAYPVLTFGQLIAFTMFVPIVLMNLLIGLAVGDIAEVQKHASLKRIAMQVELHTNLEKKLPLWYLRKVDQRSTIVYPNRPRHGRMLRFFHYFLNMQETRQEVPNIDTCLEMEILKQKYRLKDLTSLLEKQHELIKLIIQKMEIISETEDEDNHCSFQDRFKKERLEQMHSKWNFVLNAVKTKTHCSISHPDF

Molecule: C=CCN=C=S [AITC]
miR-711-responsive TG neurons that also responded [1]: 100% | TG neurons responding (calcium) [1]: 32.4% | inward currents [2]: induce inward currents

block of miR-711-induced single channel activity ([3]; outside-out patch): completely blocked
Molecule: CCC(=N\O)/C(C)=C/c1ccc(F)cc1 [A967079, (1E,3E)-1-(4-Fluorophenyl)-2-methyl-1-pentene-3-one oxime]

Molecule: miR-711: mmu-miR-711: gggacccggggagagauguaag (SEQ ID NO: 5) (GGGACCCGGGGAGAGAUGUAAG; chemistry not given here)
single-channel opening events, extracellular surface ([3]; bath application, miR-711 10 μM, AITC 50 μM, held at −60 mV): elicited single-channel opening events | duration of single channel opening (average open time) ([3]; miR-711 10 μM versus AITC 50 μM): significantly shorter | single channel conductance ([3]; mmu-miR-711 versus AITC): not significant | TG neurons responding (calcium) [1]: 12.3% | inward currents [2]: induce inward currents
